# Test results as given in PMC5224920, “Assessing the mechanism and therapeutic potential of modulators of the human Mediator complex-associated protein kinases” (eLife, 2016).
# Test system: 12 single or co-culture in vitro tissue models of primary cells
# Assay: Culture/co-culture cell model panel, extracellular biomarkers (DiscoveRx); for CCL2/MCP-1: reference of the scale not given here; for CD38: reference of the scale not given here; for CD40: reference of the scale not given here; for CD69: reference of the scale not given here; for CXCL8/IL-8: reference of the scale not given here; for CXCL9/MIG: reference of the scale not given here; for IL-1alpha: reference of the scale not given here; for PBMC Cytotoxicity: reference of the scale not given here; for SRB: reference of the scale not given here
# Format: cell-based, human
smiles,measurement,setting,value
Cc1n[nH]c2ncc(C(=O)N3CCC[C@H]3c3ccc(Cl)cc3)cc12 [CMPD4],CCL26/Eotaxin-3,"/TH2, 3.33E3 nM",-0.151
same,CD38,"/TH2, 3.33E3 nM",-0.023
same,CD40,"/TH2, 3.33E3 nM",-0.167
same,CD62E/E-Selectin,"/TH2, 3.33E3 nM",0.088
same,CD62P/P-selectin,"/TH2, 3.33E3 nM",-0.076
same,CD69,"/TH2, 3.33E3 nM",0.020
same,CD87/uPAR,"/TH2, 3.33E3 nM",-0.191
same,CD106/VCAM-1,"/TH2, 3.33E3 nM",0.009
same,CXCL8/IL-8,"/TH2, 3.33E3 nM",-0.082
same,CXCL9/MIG,"/TH2, 3.33E3 nM",-0.033
same,Collagen IV,"/TH2, 3.33E3 nM",0.00458
same,PBMC Cytotoxicity,"/TH2, 3.33E3 nM",-0.051
same,SRB,"/TH2, 3.33E3 nM",-0.131
same,sIL-17A,"/TH2, 3.33E3 nM",0.034
same,sIL-17F,"/TH2, 3.33E3 nM",0.022
same,CCL2/MCP-1,"/TH2, 3.70E2 nM",-0.111
same,CCL26/Eotaxin-3,"/TH2, 3.70E2 nM",-0.170
same,CD38,"/TH2, 3.70E2 nM",0.020
same,CD40,"/TH2, 3.70E2 nM",-0.169
same,CD62E/E-Selectin,"/TH2, 3.70E2 nM",0.039
same,CD62P/P-selectin,"/TH2, 3.70E2 nM",-0.043
same,CD69,"/TH2, 3.70E2 nM",0.055
same,CD87/uPAR,"/TH2, 3.70E2 nM",-0.203
same,CD106/VCAM-1,"/TH2, 3.70E2 nM",0.023
same,CXCL8/IL-8,"/TH2, 3.70E2 nM",-0.040
same,CXCL9/MIG,"/TH2, 3.70E2 nM",-0.019
same,Collagen IV,"/TH2, 3.70E2 nM",-0.00656
same,PBMC Cytotoxicity,"/TH2, 3.70E2 nM",0.007
same,SRB,"/TH2, 3.70E2 nM",-0.083
same,sIL-17A,"/TH2, 3.70E2 nM",0.040
same,sIL-17F,"/TH2, 3.70E2 nM",0.00074
same,CCL2/MCP-1,"/TH2, 4.12E1 nM",-0.080
same,CCL26/Eotaxin-3,"/TH2, 4.12E1 nM",-0.157
same,CD38,"/TH2, 4.12E1 nM",0.006
same,CD40,"/TH2, 4.12E1 nM",-0.170
same,CD62E/E-Selectin,"/TH2, 4.12E1 nM",0.069
same,CD62P/P-selectin,"/TH2, 4.12E1 nM",-0.051
same,CD69,"/TH2, 4.12E1 nM",0.028
same,CD87/uPAR,"/TH2, 4.12E1 nM",-0.181
same,CD106/VCAM-1,"/TH2, 4.12E1 nM",0.009
same,CXCL8/IL-8,"/TH2, 4.12E1 nM",-0.049
same,CXCL9/MIG,"/TH2, 4.12E1 nM",-0.018
same,Collagen IV,"/TH2, 4.12E1 nM",-0.002
same,PBMC Cytotoxicity,"/TH2, 4.12E1 nM",-0.057
same,SRB,"/TH2, 4.12E1 nM",-0.051
same,sIL-17A,"/TH2, 4.12E1 nM",0.042
same,sIL-17F,"/TH2, 4.12E1 nM",0.053
same,CCL2/MCP-1,"/TH2, 4.57E0 nM",-0.000419
same,CCL26/Eotaxin-3,"/TH2, 4.57E0 nM",-0.103
same,CD38,"/TH2, 4.57E0 nM",-0.00453
same,CD40,"/TH2, 4.57E0 nM",-0.110
same,CD62E/E-Selectin,"/TH2, 4.57E0 nM",0.029
same,CD62P/P-selectin,"/TH2, 4.57E0 nM",0.013
same,CD69,"/TH2, 4.57E0 nM",0.026
same,CD87/uPAR,"/TH2, 4.57E0 nM",-0.100
same,CD106/VCAM-1,"/TH2, 4.57E0 nM",0.017
same,CXCL8/IL-8,"/TH2, 4.57E0 nM",0.027
same,CXCL9/MIG,"/TH2, 4.57E0 nM",0.021
same,Collagen IV,"/TH2, 4.57E0 nM",0.011
same,PBMC Cytotoxicity,"/TH2, 4.57E0 nM",-0.009
same,SRB,"/TH2, 4.57E0 nM",-0.014
same,sIL-17A,"/TH2, 4.57E0 nM",0.056
same,sIL-17F,"/TH2, 4.57E0 nM",0.044
same,CCL26/Eotaxin-3,"BENo, 1.00E4 nM",0.048
same,CD54/ICAM-1,"BENo, 1.00E4 nM",-0.115
same,CD87/uPAR,"BENo, 1.00E4 nM",-0.014
same,CXCL8/IL-8,"BENo, 1.00E4 nM",-0.033
same,CXCL9/MIG,"BENo, 1.00E4 nM",0.082
same,CXCL10/IP-10,"BENo, 1.00E4 nM",-0.00135
same,CXCL11/I-TAC,"BENo, 1.00E4 nM",-0.038
same,EGFR,"BENo, 1.00E4 nM",0.006
same,HLA-DR,"BENo, 1.00E4 nM",-0.032
same,IL-1alpha,"BENo, 1.00E4 nM",-0.034
same,Keratin 8/18,"BENo, 1.00E4 nM",-0.032
same,MMP-1,"BENo, 1.00E4 nM",0.000562
same,MMP-9,"BENo, 1.00E4 nM",-0.051
same,PAI-I,"BENo, 1.00E4 nM",-0.097
same,SRB,"BENo, 1.00E4 nM",-0.020
same,tPA,"BENo, 1.00E4 nM",-0.115
same,uPA,"BENo, 1.00E4 nM",-0.041
same,CCL26/Eotaxin-3,"BENo, 1.11E3 nM",-0.033
same,CD54/ICAM-1,"BENo, 1.11E3 nM",-0.081
same,CD87/uPAR,"BENo, 1.11E3 nM",-0.049
same,CXCL8/IL-8,"BENo, 1.11E3 nM",-0.031
same,CXCL9/MIG,"BENo, 1.11E3 nM",-0.00357
same,CXCL10/IP-10,"BENo, 1.11E3 nM",-0.058
same,CXCL11/I-TAC,"BENo, 1.11E3 nM",-0.048
same,EGFR,"BENo, 1.11E3 nM",0.007
same,HLA-DR,"BENo, 1.11E3 nM",0.036
same,IL-1alpha,"BENo, 1.11E3 nM",-0.027
same,Keratin 8/18,"BENo, 1.11E3 nM",3.05e-5
same,MMP-1,"BENo, 1.11E3 nM",-0.038
same,MMP-9,"BENo, 1.11E3 nM",-0.005
same,PAI-I,"BENo, 1.11E3 nM",-0.107
same,SRB,"BENo, 1.11E3 nM",0.008
same,tPA,"BENo, 1.11E3 nM",-0.047
same,uPA,"BENo, 1.11E3 nM",-0.007
same,CCL26/Eotaxin-3,"BENo, 1.23E2 nM",-0.013
same,CD54/ICAM-1,"BENo, 1.23E2 nM",-0.092
same,CD87/uPAR,"BENo, 1.23E2 nM",-0.00225
same,CXCL8/IL-8,"BENo, 1.23E2 nM",-0.028
same,CXCL9/MIG,"BENo, 1.23E2 nM",-0.018
same,CXCL10/IP-10,"BENo, 1.23E2 nM",-0.010
same,CXCL11/I-TAC,"BENo, 1.23E2 nM",-0.021
same,EGFR,"BENo, 1.23E2 nM",0.013
same,HLA-DR,"BENo, 1.23E2 nM",0.00213
same,IL-1alpha,"BENo, 1.23E2 nM",0.008
same,Keratin 8/18,"BENo, 1.23E2 nM",-0.021
same,MMP-1,"BENo, 1.23E2 nM",-0.035
same,MMP-9,"BENo, 1.23E2 nM",-0.086
same,PAI-I,"BENo, 1.23E2 nM",-0.061
same,SRB,"BENo, 1.23E2 nM",0.015
same,tPA,"BENo, 1.23E2 nM",-0.029
same,uPA,"BENo, 1.23E2 nM",-0.020
same,CCL26/Eotaxin-3,"BENo, 1.37E1 nM",0.037
same,CD54/ICAM-1,"BENo, 1.37E1 nM",-0.062
same,CD87/uPAR,"BENo, 1.37E1 nM",0.021
same,CXCL8/IL-8,"BENo, 1.37E1 nM",-0.025
same,CXCL9/MIG,"BENo, 1.37E1 nM",-0.110
same,CXCL10/IP-10,"BENo, 1.37E1 nM",-0.013
same,CXCL11/I-TAC,"BENo, 1.37E1 nM",-0.064
same,EGFR,"BENo, 1.37E1 nM",0.011
same,HLA-DR,"BENo, 1.37E1 nM",0.054
same,IL-1alpha,"BENo, 1.37E1 nM",-0.002
same,Keratin 8/18,"BENo, 1.37E1 nM",-0.018
same,MMP-1,"BENo, 1.37E1 nM",-0.037
same,MMP-9,"BENo, 1.37E1 nM",-0.035
same,PAI-I,"BENo, 1.37E1 nM",-0.045
same,SRB,"BENo, 1.37E1 nM",0.023
same,tPA,"BENo, 1.37E1 nM",0.009
same,uPA,"BENo, 1.37E1 nM",-0.014
same,CCL26/Eotaxin-3,"BENo, 3.33E3 nM",-0.026
same,CD54/ICAM-1,"BENo, 3.33E3 nM",-0.069
same,CD87/uPAR,"BENo, 3.33E3 nM",-0.045
same,CXCL8/IL-8,"BENo, 3.33E3 nM",-0.035
same,CXCL9/MIG,"BENo, 3.33E3 nM",-0.00357
same,CXCL10/IP-10,"BENo, 3.33E3 nM",-0.006
same,CXCL11/I-TAC,"BENo, 3.33E3 nM",-0.044
same,EGFR,"BENo, 3.33E3 nM",0.00248
same,HLA-DR,"BENo, 3.33E3 nM",0.016
same,IL-1alpha,"BENo, 3.33E3 nM",-0.032
same,Keratin 8/18,"BENo, 3.33E3 nM",-0.033
same,MMP-1,"BENo, 3.33E3 nM",-0.028
same,MMP-9,"BENo, 3.33E3 nM",-0.009
same,PAI-I,"BENo, 3.33E3 nM",-0.091
same,SRB,"BENo, 3.33E3 nM",-0.011
same,tPA,"BENo, 3.33E3 nM",-0.052
same,uPA,"BENo, 3.33E3 nM",-0.052
same,CCL26/Eotaxin-3,"BENo, 3.70E2 nM",-0.028
same,CD54/ICAM-1,"BENo, 3.70E2 nM",-0.092
same,CD87/uPAR,"BENo, 3.70E2 nM",-0.025
same,CXCL8/IL-8,"BENo, 3.70E2 nM",-0.027
same,CXCL9/MIG,"BENo, 3.70E2 nM",-0.00262
same,CXCL10/IP-10,"BENo, 3.70E2 nM",-0.017
same,CXCL11/I-TAC,"BENo, 3.70E2 nM",-0.036
same,EGFR,"BENo, 3.70E2 nM",-0.014
same,HLA-DR,"BENo, 3.70E2 nM",-0.009
same,IL-1alpha,"BENo, 3.70E2 nM",-0.009
same,Keratin 8/18,"BENo, 3.70E2 nM",-0.013
same,MMP-1,"BENo, 3.70E2 nM",-0.038
same,MMP-9,"BENo, 3.70E2 nM",-0.012
same,PAI-I,"BENo, 3.70E2 nM",-0.072
same,SRB,"BENo, 3.70E2 nM",0.008
